Experimental data taken from ChEMBL document CHEMBL1201862, “PubChem BioAssay data set” (2004).
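Cells were grown in 96-well plates and exposed to each compound for 48 hours at five concentrations; endpoints were interpolated linearly between bracketing concentrations, or set to the highest concentration if not reached. GI50 = concentration required for 50% inhibition of growth.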 Activity calls are given as the source filed them. No stated cut-off is given here; in the data, active = GI50 up to about 1.1 µM and inactive = higher.

Legend:
Assay in all cases: growth of human tumour cells (NCI), 48 h
OVCAR-4 = system: OVCAR-4
HCT-15 = system: HCT-15
M19-MEL = system: M19-MEL
NCI-H23 = system: NCI-H23
HCT-116 = system: HCT-116
XF498 = system: XF498
SF-539 = system: SF-539
UACC-62 = system: UACC-62
SNB-19 = system: SNB-19
786-0 = system: 786-0
SK-MEL-28 = system: SK-MEL-28
SR = system: SR
COLO 205 = system: COLO 205
MOLT-4 = system: MOLT-4
K562 = system: K562
SW-620 = system: SW-620
HT-29 = system: HT-29
HOP-62 = system: HOP-62
ACHN = system: ACHN
TK-10 = system: TK-10
OVCAR-8 = system: OVCAR-8
SK-MEL-2 = system: SK-MEL-2
LXFL 529 = system: LXFL 529
NCI-H460 = system: NCI-H460
U-251 = system: U-251
HL-60 = system: HL-60
HCC 2998 = system: HCC 2998
IGROV-1 = system: IGROV-1
UACC-257 = system: UACC-257
EKVX = system: EKVX
SK-MEL-5 = system: SK-MEL-5
UO-31 = system: UO-31
RPMI-8226 = system: RPMI-8226
LOX IMVI = system: LOX IMVI
SNB-75 = system: SNB-75
DLD-1 = system: DLD-1
DMS-273 = system: DMS-273
SN12C = system: SN12C
CCRF-CEM = system: CCRF-CEM
A498 = system: A498
Malme-3M = system: Malme-3M
A549 = system: A549
NCI-H226 = system: NCI-H226
CAKI-1 = system: CAKI-1
SF-295 = system: SF-295
HOP-92 = system: HOP-92
SK-OV-3 = system: SK-OV-3
M14 = system: M14
DMS-114 = system: DMS-114
KM12 = system: KM12
RXF 393 = system: RXF 393
OVCAR-3 = system: OVCAR-3
SF-268 = system: SF-268
NCI-H522 = system: NCI-H522
OVCAR-5 = system: OVCAR-5
MCF7 = system: MCF7
MDA-N = system: MDA-N
PC-3 = system: PC-3
DU-145 = system: DU-145
T47D = system: T47D
Hs-578T = system: Hs-578T
MDA-MB-231 = system: MDA-MB-231
BT-549 = system: BT-549
NCI/ADR-RES = system: NCI/ADR-RES
MDA-MB-435 = system: MDA-MB-435
KM-20L2 = system: KM-20L2
SNB-78 = system: SNB-78

Measured: GI50

COc1ccccc1-c1cc(O)c2cc3c(cc2n1)OCO3
12.3 µM: HCT-15
inactive: OVCAR-4 25.5 µM | M19-MEL 32.4 µM | NCI-H23 54.6 µM | HCT-116 28.6 µM | XF498 21.9 µM | SF-539 25.1 µM | UACC-62 31.6 µM | SNB-19 45.3 µM | 786-0 31.9 µM | SK-MEL-28 > 100 µM | SR 29.3 µM | COLO 205 17.2 µM | MOLT-4 23.2 µM | K562 8.65 µM | SW-620 17.7 µM | HT-29 28.4 µM | HOP-62 14.3 µM | ACHN 83.8 µM | TK-10 > 100 µM | OVCAR-8 28.3 µM | SK-MEL-2 40.8 µM | LXFL 529 48.9 µM | NCI-H460 30.3 µM | U-251 > 100 µM | HL-60 19.5 µM | HCC 2998 40.1 µM | IGROV-1 35.2 µM | UACC-257 80.9 µM | EKVX > 100 µM | SK-MEL-5 5.19 µM | UO-31 65.2 µM | RPMI-8226 38.5 µM | LOX IMVI 52.4 µM | SNB-75 22.1 µM | DLD-1 40.2 µM | DMS-273 19.6 µM | SN12C 45.2 µM | CCRF-CEM 18.7 µM | A498 11.9 µM | Malme-3M 6.82 µM | A549 35.6 µM

Cn1nc(-c2ccccc2NC(=O)C(F)(F)F)c(=O)n(C)c1=S
inactive: NCI-H226 38.5 µM | OVCAR-4 19.9 µM | CAKI-1 33.6 µM | SF-295 58.2 µM | M19-MEL 18.9 µM | NCI-H23 29.2 µM | HCT-116 38.1 µM | XF498 18.9 µM | HOP-92 15.2 µM | SF-539 29.4 µM | UACC-62 > 10 µM | SNB-19 38.8 µM | SK-OV-3 > 100 µM | 786-0 61.9 µM | M14 19.8 µM | DMS-114 14 µM | SK-MEL-28 12 µM | SR 18.1 µM | COLO 205 > 10 µM | MOLT-4 22.6 µM | K562 15.9 µM | SW-620 34.5 µM | HT-29 25.8 µM | HOP-62 69.7 µM | ACHN 24.5 µM | KM12 25.7 µM | RXF 393 39.9 µM | TK-10 32.3 µM | OVCAR-3 18.5 µM | OVCAR-8 23.9 µM | SK-MEL-2 26.7 µM | SF-268 25.8 µM | LXFL 529 21.7 µM | NCI-H460 23.5 µM | U-251 27 µM | HCC 2998 46.1 µM | IGROV-1 63.2 µM | EKVX 31.3 µM | SK-MEL-5 > 100 µM | UO-31 21.7 µM | LOX IMVI 29.9 µM | NCI-H522 19.3 µM | SNB-75 5.89 µM | DLD-1 > 100 µM | DMS-273 24.4 µM | SN12C 42.3 µM | CCRF-CEM 32.6 µM | OVCAR-5 69.3 µM | Malme-3M 37.8 µM | A549 50.5 µM

CC(=O)NC1=CC(=O)c2cc(C)cc(O)c2C1=O
active: SK-MEL-28 0.822 µM | MDA-MB-435 0.721 µM
inactive: NCI-H226 19.8 µM | OVCAR-4 8.49 µM | CAKI-1 17.8 µM | SF-295 19.2 µM | NCI-H23 1.72 µM | MCF7 2.39 µM | HCT-116 5.51 µM | MDA-N 1.53 µM | HOP-92 8.73 µM | SF-539 6.84 µM | UACC-62 2.02 µM | SNB-19 28.1 µM | SK-OV-3 > 63.2 µM | 786-0 13.7 µM | M14 1.75 µM | PC-3 12.5 µM | SR 9.1 µM | COLO 205 5.5 µM | MOLT-4 4.85 µM | K562 3.74 µM | SW-620 3.41 µM | HT-29 16.9 µM | HOP-62 17.9 µM | ACHN 9.66 µM | DU-145 5.82 µM | T47D 14.5 µM | KM12 9.84 µM | RXF 393 12.5 µM | TK-10 21 µM | OVCAR-3 2.65 µM | OVCAR-8 2.44 µM | SK-MEL-2 4.72 µM | SF-268 9.33 µM | NCI-H460 14.9 µM | U-251 9.33 µM | HL-60 1.88 µM | HCC 2998 2.03 µM | IGROV-1 11.8 µM | UACC-257 1.85 µM | EKVX 17.2 µM | SK-MEL-5 1.14 µM | Hs-578T 31.8 µM | UO-31 7.59 µM | RPMI-8226 2.92 µM | MDA-MB-231 7.19 µM | LOX IMVI 1.53 µM | NCI-H522 8.83 µM | SNB-75 18.7 µM | BT-549 7.06 µM | NCI/ADR-RES 5.77 µM | SN12C 5.09 µM | CCRF-CEM 4.47 µM | A498 11 µM | OVCAR-5 12.5 µM | Malme-3M 1.9 µM | A549 7.5 µM
2.88 µM: HCT-15

O=[N+]([O-])c1ccc(-c2cnc3ccccn23)cc1
> 100 µM: HCT-15
inactive: NCI-H226 > 100 µM | OVCAR-4 > 100 µM | CAKI-1 62.4 µM | SF-295 > 100 µM | M19-MEL > 100 µM | NCI-H23 > 100 µM | HCT-116 > 100 µM | XF498 > 100 µM | SF-539 > 100 µM | UACC-62 > 100 µM | SNB-19 > 100 µM | SK-OV-3 62.5 µM | 786-0 > 100 µM | M14 > 100 µM | DMS-114 48.6 µM | SK-MEL-28 > 100 µM | SR 84.7 µM | COLO 205 > 100 µM | MOLT-4 > 100 µM | K562 > 100 µM | SW-620 > 100 µM | HT-29 > 100 µM | HOP-62 > 100 µM | ACHN > 100 µM | KM12 > 100 µM | RXF 393 24.2 µM | OVCAR-3 > 100 µM | OVCAR-8 > 100 µM | SK-MEL-2 > 100 µM | SF-268 > 100 µM | LXFL 529 > 100 µM | NCI-H460 > 100 µM | U-251 > 100 µM | HL-60 44.2 µM | UACC-257 > 100 µM | EKVX > 100 µM | SK-MEL-5 > 100 µM | UO-31 > 100 µM | RPMI-8226 52.6 µM | LOX IMVI > 100 µM | NCI-H522 > 100 µM | KM-20L2 > 100 µM | SNB-75 30.6 µM | DMS-273 > 100 µM | SN12C 61.2 µM | CCRF-CEM > 100 µM | SNB-78 > 100 µM | A498 > 100 µM | OVCAR-5 > 100 µM | Malme-3M > 100 µM | A549 > 100 µM

CN1C2(c3ccccc3)C(C(=O)c3ccccc3)=C(C(=O)c3ccccc3)C1(c1ccccc1)c1c(-c3ccccc3)sc(-c3ccccc3)c12
> 100 µM: HCT-15
inactive: NCI-H226 78.5 µM | OVCAR-4 > 100 µM | CAKI-1 > 100 µM | SF-295 > 100 µM | M19-MEL > 100 µM | NCI-H23 > 100 µM | HCT-116 > 100 µM | HOP-92 > 100 µM | SF-539 > 100 µM | UACC-62 > 100 µM | SNB-19 > 100 µM | SK-OV-3 > 100 µM | 786-0 > 100 µM | M14 > 100 µM | DMS-114 > 100 µM | SK-MEL-28 > 100 µM | SR > 100 µM | COLO 205 > 100 µM | K562 > 100 µM | SW-620 > 100 µM | HT-29 > 100 µM | HOP-62 > 100 µM | ACHN > 100 µM | KM12 > 100 µM | RXF 393 > 100 µM | TK-10 > 100 µM | OVCAR-3 > 100 µM | OVCAR-8 > 100 µM | SF-268 > 100 µM | LXFL 529 > 100 µM | NCI-H460 > 100 µM | U-251 > 100 µM | HL-60 > 100 µM | HCC 2998 > 100 µM | IGROV-1 > 100 µM | UACC-257 > 100 µM | EKVX > 100 µM | SK-MEL-5 > 100 µM | UO-31 > 100 µM | RPMI-8226 > 100 µM | LOX IMVI > 100 µM | NCI-H522 > 100 µM | KM-20L2 > 100 µM | SNB-75 > 100 µM | DLD-1 > 100 µM | DMS-273 > 100 µM | SN12C > 100 µM | CCRF-CEM > 100 µM | SNB-78 > 100 µM | A498 > 100 µM | OVCAR-5 > 100 µM | Malme-3M > 100 µM | A549 > 100 µM
